Read-outs that look alike come from different tables or passages of the source.
Key:
[1] = biological target: active human recombinant Src (Homo sapiens, UniProt P12931); test: Z'-LYTE kinase assay (FRET), primary screen; format: biochemical; conditions: isolated enzyme, mean ± SD of two independent experiments
Method: (§3) Enzymatic assays to determine the kinase inhibitory activity of NCEs were performed using an automatic liquid-handling device (Microlab STAR Hamilton) and Z’-LYTE Kinase Assay Platform, a fluorescence resonance energy transfer (FRET)-based assay platform compatible with high-throughput screening (HTS) applications. […] The assay procedure was carried out according to the supplier’s indications. […] Final results have been expressed as percent inhibition, and IC50 values were calculated by non-linear curve fitting using GraphPad Prism software (version 6 for Windows). The inter-experimental variability of IC50 values resulted within accepted limits of ±0.5 log units.

Fyn = biological target: T1, Fyn (Homo sapiens, UniProt P06241); test: Z'-LYTE kinase assay (FRET), SFK profiling; format: biochemical; conditions: isolated enzyme, mean ± SD of two independent experiments
T1 construct: (Fyn, LynA, and Yes1, all human recombinant full-length proteins)
Method: as §3

LynA = biological target: T2, LynA (Homo sapiens, UniProt P07948); test: Z'-LYTE kinase assay (FRET), SFK profiling; format: biochemical; conditions: isolated enzyme, mean ± SD of two independent experiments; read-out: Lyn IC50
T2 construct: (Fyn, LynA, and Yes1, all human recombinant full-length proteins)
Method: as §3

Yes1 = biological target: T3, Yes1 (Homo sapiens, UniProt P07947); test: Z'-LYTE kinase assay (FRET), SFK profiling; format: biochemical; conditions: isolated enzyme, mean ± SD of two independent experiments; read-out: Yes IC50
T3 construct: (Fyn, LynA, and Yes1, all human recombinant full-length proteins)
Method: as §3

[2] = system: SH-SY5Y neuroblastoma cell line; test: Antiproliferative assay, viable cell count after 72 h; format: cell-based, human; conditions: for increased activity compared to the hit compound 2 on SH-SY5Y cells: 72 h, ratio of IC50 values; for IC50: Homo sapiens, 72 h incubation, read-out: IC50 antiproliferative activity on SH-SY5Y cells
Method: (§1) Starting from these promising results in enzymatic assays, we decided to test NCEs 4 on K562 CML and SH-SY5Y NB cell lines, to evaluate if they are endowed with an increased antiproliferative activity compared with the hit compound 2. A hyperactivation of SFKs has been detected in both K562 and SH-SY5Y cell lines. Cells were treated with increasing concentrations of compounds and cell proliferation was measured by counting viable cells after 72 h of incubation. […] The activity of these compounds could be due not only to Src inhibition, but also to their effect on Fyn and Lyn, both involved in NB development.
(§2) In vitro experiments were carried out using human neuroblastoma cell line SH-SY5Y, human glioblastoma cell line U-87, and human erythroleukemia cell line K-562. Cell lines were obtained from American Tissue Culture Collection (ATCC, SH-SY5Y CRL-2266; U-87 HTB-14; K-562 CCL-243). K-562 cells were cultured in RPMI medium with 10% FCS. SH-SY5Y and U-87 cells were cultured in DMEM medium with 10% FCS. In order to determine antiproliferative effect of NCE compounds cells were seeded at density of 5 × 10^4 cells/mL (K-562) or 10 × 10^4 cells/cm^2 (SH-SY5Y, U-87) and treated with increasing concentrations of NCE compounds. Control cells were treated with the vehicle of the experimental point containing the highest percentage of DMSO. Cell cultures were maintained at 37 °C in 5% v/v CO2 for 72 h. Cell number and vitality were evaluated on cell suspension using the automatic cell counter NucleoCounter® (Chemometec, Denmark). Results from the NucleoCounter represented either total or non-viable cell concentration, depending on the sample preparation indicated by the manufacturer. Each experiment was performed at least three times and results were expressed as mean and standard deviation.

K562 CML cell line [3] = test: as above; format: cell-based; conditions: Homo sapiens; K562, 72 h incubation; read-out: IC50 antiproliferative activity on K562 cells
Method: as §1
In vitro experiments were carried out using human neuroblastoma cell line SH-SY5Y, human glioblastoma cell line U-87, and human erythroleukemia cell line K-562. Cell lines were obtained from American Tissue Culture Collection (ATCC, SH-SY5Y CRL-2266; U-87 HTB-14; K-562 CCL-243). K-562 cells were cultured in RPMI medium with 10% FCS. SH-SY5Y and U-87 cells were cultured in DMEM medium with 10% FCS. […] Cell number and vitality were evaluated on cell suspension using the automatic cell counter NucleoCounter® (Chemometec, Denmark). […] Each experiment was performed at least three times and results were expressed as mean and standard deviation.

[4] = system: U87 glioblastoma multiforme cells; test: as above; format: cell-based; conditions: Homo sapiens; U87, 72 h incubation
Method: A possible explanation could be the multidrug resistance mechanisms that GBM cells usually carry: an example is the overexpression of membrane channels (ABCB1) that are able to pump different kind of drugs out of the cells. In Supplementary Materials, Figure S1, the activity of other NCEs on U87 GBM cell line are reported.
as §2, with “Results from the NucleoCounter represented either total or non-viable cell concentration, depending on the sample preparation indicated by the manufacturer.” left out

Jak2 = system: Jak2; design: method as in PMID 24359159; conditions: cited from earlier work
[5] = system: SH-SY5Y neuroblastoma cell line; design: method as in PMID 26514807; conditions: previous work; cited from earlier work
K562 CML cell line [6] = system: K562 CML cell line; design: method as in PMID 26514807; conditions: previous work; cited from earlier work

T2 sequence (P07948 whole entry): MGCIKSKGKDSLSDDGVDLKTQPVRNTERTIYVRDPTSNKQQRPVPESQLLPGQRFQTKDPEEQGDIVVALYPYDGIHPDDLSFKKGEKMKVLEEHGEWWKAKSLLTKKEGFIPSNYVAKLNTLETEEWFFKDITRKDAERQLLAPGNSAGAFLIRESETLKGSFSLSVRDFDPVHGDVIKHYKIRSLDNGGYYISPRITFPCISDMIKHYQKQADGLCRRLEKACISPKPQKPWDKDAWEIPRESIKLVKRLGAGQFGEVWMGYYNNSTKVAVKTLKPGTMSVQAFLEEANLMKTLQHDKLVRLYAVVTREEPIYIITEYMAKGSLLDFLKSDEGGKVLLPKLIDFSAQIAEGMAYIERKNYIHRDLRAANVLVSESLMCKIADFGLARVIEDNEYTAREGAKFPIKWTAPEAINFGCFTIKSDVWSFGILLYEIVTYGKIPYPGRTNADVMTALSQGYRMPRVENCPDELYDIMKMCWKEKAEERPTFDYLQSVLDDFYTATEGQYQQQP
Sequence of active human recombinant Src (P12931 whole entry): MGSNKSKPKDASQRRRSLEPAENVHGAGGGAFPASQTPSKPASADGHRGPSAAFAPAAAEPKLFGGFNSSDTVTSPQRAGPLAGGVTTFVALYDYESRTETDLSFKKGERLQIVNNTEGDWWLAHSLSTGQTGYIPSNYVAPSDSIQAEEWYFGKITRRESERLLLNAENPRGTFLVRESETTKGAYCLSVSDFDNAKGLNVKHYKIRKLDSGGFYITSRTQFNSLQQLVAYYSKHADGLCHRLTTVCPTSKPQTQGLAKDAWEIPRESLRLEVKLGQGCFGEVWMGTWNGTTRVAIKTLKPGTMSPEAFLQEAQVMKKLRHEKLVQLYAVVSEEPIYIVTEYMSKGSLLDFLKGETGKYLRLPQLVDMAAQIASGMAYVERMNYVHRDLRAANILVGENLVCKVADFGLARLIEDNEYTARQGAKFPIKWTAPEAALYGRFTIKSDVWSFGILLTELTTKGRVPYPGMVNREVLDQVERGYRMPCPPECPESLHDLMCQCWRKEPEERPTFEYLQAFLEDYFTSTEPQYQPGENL
T3 sequence (P07947 whole entry): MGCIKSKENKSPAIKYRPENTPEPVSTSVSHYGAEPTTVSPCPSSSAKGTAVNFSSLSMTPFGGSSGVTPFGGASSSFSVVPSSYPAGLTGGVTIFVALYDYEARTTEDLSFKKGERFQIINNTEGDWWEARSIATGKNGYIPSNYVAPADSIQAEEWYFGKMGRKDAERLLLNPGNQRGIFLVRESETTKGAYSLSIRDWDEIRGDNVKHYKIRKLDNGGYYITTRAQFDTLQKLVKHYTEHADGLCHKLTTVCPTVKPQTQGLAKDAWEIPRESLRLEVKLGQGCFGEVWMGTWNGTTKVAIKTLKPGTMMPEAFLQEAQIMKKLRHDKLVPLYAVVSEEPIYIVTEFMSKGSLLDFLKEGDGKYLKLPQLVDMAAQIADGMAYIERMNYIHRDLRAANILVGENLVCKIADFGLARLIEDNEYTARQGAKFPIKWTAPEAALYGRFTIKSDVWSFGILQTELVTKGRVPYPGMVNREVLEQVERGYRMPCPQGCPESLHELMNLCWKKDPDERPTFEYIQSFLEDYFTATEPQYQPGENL
T1 sequence (P06241 whole entry): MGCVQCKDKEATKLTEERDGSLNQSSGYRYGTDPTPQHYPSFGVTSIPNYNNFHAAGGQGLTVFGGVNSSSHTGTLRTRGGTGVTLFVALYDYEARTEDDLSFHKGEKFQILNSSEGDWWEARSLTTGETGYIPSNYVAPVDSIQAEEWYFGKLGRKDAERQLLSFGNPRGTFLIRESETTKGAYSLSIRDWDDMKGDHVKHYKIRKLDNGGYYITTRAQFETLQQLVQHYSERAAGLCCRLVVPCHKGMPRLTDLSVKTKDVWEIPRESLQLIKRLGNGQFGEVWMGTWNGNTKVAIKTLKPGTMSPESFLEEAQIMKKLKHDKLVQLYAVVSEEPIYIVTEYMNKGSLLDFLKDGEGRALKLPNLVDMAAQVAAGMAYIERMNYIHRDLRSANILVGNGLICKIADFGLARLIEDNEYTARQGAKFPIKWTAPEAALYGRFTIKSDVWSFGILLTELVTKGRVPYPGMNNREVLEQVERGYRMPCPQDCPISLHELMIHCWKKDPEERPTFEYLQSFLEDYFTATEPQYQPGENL

Structure (SMILES)	IC50 [1]	IC50 (Fyn)	IC50 (LynA)	IC50 (Yes1)	melting point	increased activity compared to the hit compound 2 on SH-SY5Y cells [2]	IC50 [2]	IC50 (K562 CML cell line [3])	IC50 [4]	IC50 (Jak2)	IC50 [5]	IC50 (K562 CML cell line [6])
COc1cccc(CCn2cnc(Nc3cc(N4CCN(CCO)CC4)nc(C)n3)c2)c1 [4a, 2-{4-[6-({1-[2-(3-Methoxyphenyl)ethyl]-1H-imidazol-4-yl}amino)-2-methylpyrimidin-4-yl]piperazin-1-yl}ethanol]	260 ± 23 nM	146 ± 30 nM	451 ± 13 nM	560 ± 40 nM								
COc1cccc(CCn2cnc(Nc3cc(N4CCN(CC(N)=O)CC4)nc(C)n3)c2)c1 [4b, 2-{4-[6-({1-[2-(3-Methoxyphenyl)ethyl]-1H-imidazol-4-yl}amino)-2-methylpyrimidin-4-yl]piperazin-1-yl}acetamide]	1480 ± 185 nM	1450 ± 768 nM	1810 ± 307 nM	1840 ± 812 nM	198 to 200 °C							
COc1ccccc1CCn1cnc(Nc2cc(N3CCN(CCO)CC3)nc(C)n2)c1 [4c, 2-{4-[6-({1-[2-(2-Methoxyphenyl)ethyl]-1H-imidazol-4-yl}amino)-2-methylpyrimidin-4-yl]piperazin-1-yl}ethanol]	225 ± 8 nM	439 ± 45 nM	145 ± 31 nM	55 ± 9 nM								
COc1ccccc1CCn1cnc(Nc2cc(N3CCN(CC(N)=O)CC3)nc(C)n2)c1 [4d, 2-{4-[6-({1-[2-(2-Methoxyphenyl)ethyl]-1H-imidazol-4-yl}amino)-2-methylpyrimidin-4-yl]piperazin-1-yl}acetamide]	1530 ± 44 nM	1390 ± 93 nM	1200 ± 189 nM									
Cc1nc(Nc2cn(CCc3ccccc3O)cn2)cc(N2CCN(CCO)CC2)n1 [4e, 2-{2-[4-({6-[4-(2-Hydroxyethyl)piperazin-1-yl]-2-methylpyrimidin-4-yl}amino)-1H-imidazol-1-yl]ethyl}phenol]	59 ± 5 nM	73 ± 5 nM	17 ± 0.54 nM	11 ± 0.6 nM								
Cc1nc(Nc2cn(CCc3ccccc3O)cn2)cc(N2CCNCC2)n1 [4f, 2-(2-{4-[(2-Methyl-6-piperazin-1-ylpyrimidin-4-yl)amino]-1H-imidazol-1-yl}ethyl)phenol]	56 ± 5 nM	50 ± 4 nM	51 ± 3 nM	3 ± 1 nM	193 to 196 °C							
Cc1nc(Nc2cn(CCc3ccccc3O)cn2)cc(N2CCN(CC(N)=O)CC2)n1 [4g, 2-{4-[6-({1-[2-(2-Hydroxyphenyl)ethyl]-1H-imidazol-4-yl}amino)-2-methylpyrimidin-4-yl]piperazin-1-yl}acetamide]	40 ± 5 nM	40 ± 5 nM	19 ± 2 nM	15 ± 4 nM	160 to 163 °C							
Cc1nc(Nc2cn(CCc3cccc(O)c3)cn2)cc(N2CCN(CCO)CC2)n1 [4h, 3-{2-[4-({6-[4-(2-Hydroxyethyl)piperazin-1-yl]-2-methylpyrimidin-4-yl}amino)-1H-imidazol-1-yl]ethyl}phenol]	93 ± 19 nM	10 ± 0.4 nM	20 ± 0.8 nM	3 ± 1 nM	150 to 155 °C							
Cc1nc(Nc2cn(CCc3cccc(O)c3)cn2)cc(N2CCNCC2)n1 [4i, 3-(2-{4-[(2-Methyl-6-piperazin-1-ylpyrimidin-4-yl)amino]-1H-imidazol-1-yl}ethyl)phenol]	83 ± 18 nM	10 ± 0.4 nM	27 ± 1 nM	3 ± 0.8 nM	193 to 196 °C							
Cc1nc(Nc2cn(CCc3cccc(O)c3)cn2)cc(N2CCN(CC(N)=O)CC2)n1 [4j, 2-{4-[6-({1-[2-(3-Hydroxyphenyl)ethyl]-1H-imidazol-4-yl}amino)-2-methylpyrimidin-4-yl]piperazin-1-yl}acetamide]	40 ± 3 nM	12 ± 2 nM	10 ± 1.2 nM	3 ± 0.7 nM								
COC(=O)CN1CCN(c2cc(Nc3cn(CCc4cccc(O)c4)cn3)nc(C)n2)CC1 [4k, Methyl{4-[6-({1-[2-(3-hydroxyphenyl)ethyl]-1H-imidazol-4-yl}amino)-2-methylpyrimidin-4-yl]piperazin-1-yl}acetate]	40 ± 2 nM	9 ± 1 nM	18 ± 1 nM	3 ± 1 nM	127 to 130 °C	more than 2 fold	8600 nM	11700 nM	12600 nM			
Cc1nc(Nc2cn(CCc3cccc(O)c3)cn2)cc(N2CCN(C(=O)OC(C)(C)C)CC2)n1 [4l, tert-Butyl4-[6-({1-[2-(3-hydroxyphenyl)ethyl]-1H-imidazol-4-yl}amino)-2-methylpyrimidin-4-yl]piperazine-1-carboxylate]	50 ± 3 nM	14 ± 1.5 nM	26 ± 3 nM	7 ± 0.35 nM	127 to 130 °C	more than 2 fold	7800 nM	18900 nM	13300 nM			
Cc1cc(Nc2nc(N[C@@H](C)c3ncc(F)cn3)ncc2Cl)n[nH]1 [AZD1480]										58 nM		
Cc1nc(Nc2cn(CCc3ccccc3)cn2)cc(N2CCN(CCO)CC2)n1 [compound 2]											25000 nM	> 25000 nM

Reference: publication PMC6225123, “Optimization of Aminoimidazole Derivatives as Src Family Kinase Inhibitors” (Molecules : A Journal of Synthetic Chemistry and Natural …, 2018)
